Test results as given in ChEMBL document CHEMBL3046368, “Synthesis of benzothiazole derivatives and their biological evaluation as anticancer agents” (2012).

What was measured:
Format in all cases: functional
[1] = system: T47D; experiment: Cytotoxicity against Homo sapiens (human) T47D cells after 48 hr by SRB assay
[2] = system: BT-549; experiment: Cytotoxicity against Homo sapiens (human) BT549 cells after 48 hr by SRB assay; settings: BT-549, 48 h
[3] = system: Hs-578T; experiment: Cytotoxicity against Homo sapiens (human) Hs578T cells after 48 hr by SRB assay
[4] = system: MDA-MB-231; experiment: Cytotoxicity against Homo sapiens (human) MDA-MB-231 cells after 48 hr by SRB assay; settings: MDA-MB-231, 48 h
[5] = system: MCF7; experiment: Cytotoxicity against Homo sapiens (human) MCF7 cells after 48 hr by SRB assay; settings: MCF7, 48 h
[6] = system: DU-145; experiment: Cytotoxicity against Homo sapiens (human) DU145 cells after 48 hr by SRB assay; settings: DU-145, 48 h
[7] = system: SN12C; experiment: Cytotoxicity against Homo sapiens (human) SN12C cells after 48 hr by SRB assay
[8] = system: ACHN; experiment: Cytotoxicity against Homo sapiens (human) ACHN cells after 48 hr by SRB assay
[9] = system: A498; experiment: Cytotoxicity against Homo sapiens (human) A498 cells after 48 hr by SRB assay; settings: A498, 48 h
[10] = system: 786-0; experiment: Cytotoxicity against Homo sapiens (human) 786-0 cells after 48 hr by SRB assay; settings: 786-0, 48 h
[11] = system: OVCAR-5; experiment: Cytotoxicity against Homo sapiens (human) OVCAR5 cells after 48 hr by SRB assay; settings: OVCAR-5, 48 h
[12] = system: OVCAR-3; experiment: Cytotoxicity against Homo sapiens (human) OVCAR3 cells after 48 hr by SRB assay; settings: OVCAR-3, 48 h
[13] = system: UACC-257; experiment: Cytotoxicity against Homo sapiens (human) UACC257 cells after 48 hr by SRB assay; settings: UACC-257, 48 h
[14] = system: UACC-62; experiment: Cytotoxicity against Homo sapiens (human) UACC62 cells after 48 hr by SRB assay; settings: UACC-62, 48 h
[15] = system: SK-MEL-28; experiment: Cytotoxicity against Homo sapiens (human) SK-MEL-28 cells after 48 hr by SRB assay; settings: SK-MEL-28, 48 h
[16] = system: M14; experiment: Cytotoxicity against Homo sapiens (human) M14 cells after 48 hr by SRB assay; settings: M14, 48 h
[17] = system: U-251; experiment: Cytotoxicity against Homo sapiens (human) U251 cells after 48 hr by SRB assay; settings: U-251, 48 h
[18] = system: LOX IMVI; experiment: Cytotoxicity against Homo sapiens (human) LOXIMVI cells after 48 hr by SRB assay
[19] = system: SNB-19; experiment: Cytotoxicity against Homo sapiens (human) SNB19 cells after 48 hr by SRB assay; settings: SNB-19, 48 h
[20] = system: SNB-75; experiment: Cytotoxicity against Homo sapiens (human) SNB75 cells after 48 hr by SRB assay; settings: SNB-75, 48 h
[21] = system: SF-539; experiment: Cytotoxicity against Homo sapiens (human) SF539 cells after 48 hr by SRB assay; settings: SF-539, 48 h
[22] = system: SF-268; experiment: Cytotoxicity against Homo sapiens (human) SF268 cells after 48 hr by SRB assay; settings: SF-268, 48 h
[23] = system: KM12; experiment: Cytotoxicity against Homo sapiens (human) KM12 cells after 48 hr by SRB assay; settings: KM12, 48 h
[24] = system: SW-620; experiment: Cytotoxicity against Homo sapiens (human) SW620 cells after 48 hr by SRB assay; settings: SW-620, 48 h
[25] = system: HCT-15; experiment: Cytotoxicity against Homo sapiens (human) HCT15 cells after 48 hr by SRB assay; settings: HCT-15, 48 h
[26] = system: COLO 205; experiment: Cytotoxicity against Homo sapiens (human) COLO205 cells after 48 hr by SRB assay; settings: COLO 205, 48 h
[27] = system: NCI-H322M; experiment: Cytotoxicity against Homo sapiens (human) NCI-H322M cells after 48 hr by SRB assay
[28] = system: EKVX; experiment: Cytotoxicity against Homo sapiens (human) EKVX cells after 48 hr by SRB assay
[29] = system: SR; experiment: Cytotoxicity against Homo sapiens (human) SR cells after 48 hr by SRB assay
[30] = system: A549; experiment: Cytotoxicity against Homo sapiens (human) A549 cells after 48 hr by SRB assay; settings: A549, 48 h
[31] = system: RPMI-8226; experiment: Cytotoxicity against Homo sapiens (human) RPMI8226 cells after 48 hr by SRB assay; settings: RPMI-8226, 48 h
[32] = system: K562; experiment: Cytotoxicity against Homo sapiens (human) K562 cells after 48 hr by SRB assay; settings: K562, 48 h
[33] = Cytotoxicity against Homo sapiens (human) breast cancer cells assessed as cell growth at 10^-5 M after 48 hr by SRB assay relative to control; settings: Cancer cell lines, read-out: Activity
[34] = Cytotoxicity against Homo sapiens (human) prostate cancer cells assessed as cell growth at 10^-5 M after 48 hr by SRB assay relative to control; settings: Cancer cell lines, read-out: Activity
[35] = Cytotoxicity against Homo sapiens (human) renal cancer cells assessed as cell growth at 10^-5 M after 48 hr by SRB assay relative to control; settings: Cancer cell lines, read-out: Activity
[36] = system: CCRF-CEM; experiment: Cytotoxicity against Homo sapiens (human) CCRF-CEM cells after 48 hr by SRB assay
[37] = system: HL-60(TB); experiment: Cytotoxicity against Homo sapiens (human) HL-60(TB) cells after 48 hr by SRB assay; settings: HL-60, 48 h
[38] = system: NCI-H460; experiment: Cytotoxicity against Homo sapiens (human) NCI-H460 cells after 48 hr by SRB assay; settings: NCI-H460, 48 h
[39] = system: NCI-H226; experiment: Cytotoxicity against Homo sapiens (human) NCI-H226 cells after 48 hr by SRB assay; settings: NCI-H226, 48 h
[40] = system: NCI-H23; experiment: Cytotoxicity against Homo sapiens (human) NCI-H23 cells after 48 hr by SRB assay; settings: NCI-H23, 48 h

SMILES	GI50 [1]	GI50 [2]	GI50 [3]	GI50 [4]	GI50 [5]	GI50 [6]	GI50 [7]	GI50 [8]	GI50 [9]	GI50 [10]	GI50 [11]	GI50 [12]	GI50 [13]	GI50 [14]	GI50 [15]	GI50 [16]	GI50 [17]	GI50 [18]	GI50 [19]	GI50 [20]	other results
N#Cc1ccc(NC(=O)Nc2nc3ccc(OC(F)(F)F)cc3s2)cc1	427 nM	2750 nM	1780 nM	933 nM	1000 nM	2690 nM	1580 nM	724 nM	468 nM	2000 nM	4270 nM	575 nM	1350 nM	741 nM	2290 nM	2400 nM	1410 nM	1480 nM	1510 nM	1820 nM	GI50 [21]: 2880 nM; GI50 [22]: 3090 nM; GI50 [23]: 1020 nM; GI50 [24]: 1620 nM; GI50 [25]: 1380 nM; GI50 [26]: 1700 nM; GI50 [27]: 2400 nM; GI50 [28]: 1350 nM; GI50 [29]: 741 nM; GI50 [30]: 1200 nM; GI50 [31]: 1000 nM; GI50 [32]: 537 nM; growth at 10 µM [33]: -5.18%; growth at 10 µM [34]: 13%; growth at 10 µM [35]: -7.46%; GI50 [36]: 1510 nM; GI50 [37]: 2450 nM; GI50 [38]: 603 nM; GI50 [39]: 2000 nM; GI50 [40]: 575 nM
O=C(Nc1ccc(F)cc1)Nc1nc2ccc(OC(F)(F)F)cc2s1	2630 nM	3800 nM	3090 nM	3310 nM	2140 nM	3470 nM	2570 nM	2400 nM	2950 nM	3470 nM	3630 nM	2240 nM	3550 nM	3550 nM	3630 nM	4370 nM	3980 nM	3240 nM	3720 nM	3470 nM	GI50 [21]: 2240 nM; GI50 [22]: 3720 nM; GI50 [23]: 2690 nM; GI50 [24]: 3720 nM; GI50 [25]: 3020 nM; GI50 [26]: 2090 nM; GI50 [27]: 4470 nM; GI50 [28]: 2630 nM; GI50 [29]: 3720 nM; GI50 [30]: 3470 nM; GI50 [31]: 2510 nM; GI50 [32]: 3550 nM; growth at 10 µM [33]: 19.2%; growth at 10 µM [34]: 12.4%; growth at 10 µM [35]: 15.8%; GI50 [36]: 3980 nM; GI50 [37]: 3020 nM; GI50 [38]: 3020 nM; GI50 [39]: 2820 nM; GI50 [40]: 2880 nM
